“And” between values parts separate entries of the source, which are not always exact repeats. Identical values can stand only once. Like-named read-outs stand apart in the source and are kept apart here.
Tests used:
[1] = target: T1, Human CYP2A6 + P450 Reductase + Cytochrome b5 SUPERSOMES (Homo sapiens, UniProt P11509)
T1 sequence (P11509 1-494): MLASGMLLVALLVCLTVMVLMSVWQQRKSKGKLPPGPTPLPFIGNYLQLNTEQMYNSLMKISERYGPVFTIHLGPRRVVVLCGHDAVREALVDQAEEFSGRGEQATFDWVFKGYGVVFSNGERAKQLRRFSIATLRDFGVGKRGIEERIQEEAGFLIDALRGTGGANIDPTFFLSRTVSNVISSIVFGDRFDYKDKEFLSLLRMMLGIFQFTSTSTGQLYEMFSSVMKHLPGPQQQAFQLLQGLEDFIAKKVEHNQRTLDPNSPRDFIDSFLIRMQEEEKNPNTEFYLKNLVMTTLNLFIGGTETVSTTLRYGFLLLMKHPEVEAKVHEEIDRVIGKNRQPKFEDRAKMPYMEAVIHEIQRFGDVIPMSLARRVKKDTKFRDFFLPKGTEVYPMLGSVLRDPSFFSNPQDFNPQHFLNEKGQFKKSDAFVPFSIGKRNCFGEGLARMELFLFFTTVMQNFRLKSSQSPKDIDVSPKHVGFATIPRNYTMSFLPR
Procedure: (§1) In this study, individual CYP isoforms expressed from human cDNA and P450 reductase cDNA were used (BD SUPERSOMES™ Enzymes, BD Biosciences Discovery Labware, Woburn, Mass.). SUPERSOMES™ are microsomes from baculovirus-infected insect cells containing singly expressed recombinant human CYP enzymes.
(§2) After a 5-minute preincubation, an appropriate amount of the appropriate buffer was added to the reaction mixtures to make the final volume of 0.5 mL. The incubations were continued for 60 minutes.
(§3) All incubation reactions were terminated by adding 0.5 mL methanol, and the samples were transferred to cryovials and stored at −70±10° C. until analysis.

[2] = target: T2, Human CYP2C8 + P450 Reductase + Cytochrome b5 SUPERSOMES (Homo sapiens, UniProt P10632)
T2 sequence (P10632 1-490): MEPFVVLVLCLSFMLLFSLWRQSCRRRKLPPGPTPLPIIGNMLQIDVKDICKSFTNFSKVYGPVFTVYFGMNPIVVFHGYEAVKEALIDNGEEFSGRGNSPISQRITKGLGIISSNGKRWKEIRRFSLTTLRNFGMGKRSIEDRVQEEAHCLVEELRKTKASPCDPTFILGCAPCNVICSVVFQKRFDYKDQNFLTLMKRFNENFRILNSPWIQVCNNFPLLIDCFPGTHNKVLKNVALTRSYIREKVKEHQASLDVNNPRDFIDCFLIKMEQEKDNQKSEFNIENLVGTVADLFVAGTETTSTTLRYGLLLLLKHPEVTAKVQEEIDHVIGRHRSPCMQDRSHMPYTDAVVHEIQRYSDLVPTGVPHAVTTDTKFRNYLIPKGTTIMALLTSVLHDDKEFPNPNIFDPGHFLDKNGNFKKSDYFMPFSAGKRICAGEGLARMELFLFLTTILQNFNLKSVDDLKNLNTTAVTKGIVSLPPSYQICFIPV
Procedure: as §1, §2, §3

[3] = target: Human CYP2C9*1 (Arg144) + P450 Reductase + Cytochrome b5 SUPERSOMES (Homo sapiens, UniProt P11712)
Procedure: as §1, §2, §3

[4] = target: Human CYP2D6*1 + P450 Reductase SUPERSOMES (Homo sapiens, UniProt P10635)
Procedure: as §1, §2, §3

[5] = target: Human CYP2E1 + P450 Reductase + Cytochrome b5 SUPERSOMES (Homo sapiens, UniProt P05181)
Procedure: as §1, §2, §3

[6] = 5 μM, 5 pmol enzyme, listed as megestrol acetate
[7] = 5 μM, 20 pmol enzyme, listed as megestrol acetate
[8] = 50 μM, 5 pmol enzyme, listed as megestrol acetate
[9] = 50 μM, 20 pmol enzyme, listed as megestrol acetate

Human CYP2E1 + P450 Reductase + Cytochrome b5 SUPERSOMES, sequence (P05181 whole entry): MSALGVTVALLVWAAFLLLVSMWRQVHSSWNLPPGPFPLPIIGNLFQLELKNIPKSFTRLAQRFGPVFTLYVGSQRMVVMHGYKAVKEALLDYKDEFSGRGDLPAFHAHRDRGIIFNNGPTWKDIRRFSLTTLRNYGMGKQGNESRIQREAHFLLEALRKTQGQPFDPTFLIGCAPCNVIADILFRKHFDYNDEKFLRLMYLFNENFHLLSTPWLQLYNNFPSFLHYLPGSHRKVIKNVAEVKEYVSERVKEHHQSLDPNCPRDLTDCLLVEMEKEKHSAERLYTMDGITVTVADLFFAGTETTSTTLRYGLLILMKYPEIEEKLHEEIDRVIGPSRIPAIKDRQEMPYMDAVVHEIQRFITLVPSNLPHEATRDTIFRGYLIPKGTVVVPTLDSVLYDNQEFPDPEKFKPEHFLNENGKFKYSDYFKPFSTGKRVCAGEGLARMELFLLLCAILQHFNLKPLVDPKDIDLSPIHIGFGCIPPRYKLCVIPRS

CC(=O)O[C@]1(C(C)=O)CC[C@H]2[C@@H]3C=C(C)C4=CC(=O)CC[C@]4(C)[C@H]3CC[C@@]21C [Megestrol Acetate, 17 α-acetyloxy-6-methylpregna-4,6-diene-3,20-dione]
Individual Raw Data Observed ([1]; 5 μM, 5 pmol enzyme): 2.313 µM and 2.35 µM and 2.527 µM | Percent of Parent Disappearance Individual ([1]; 5 μM, 5 pmol enzyme): 3.96% and 2.43% and −4.94% | Percent of Parent Disappearance Mean ± SD ([1]; 5 μM, 5 pmol enzyme): 0.486 ± 4.76% | Percent of Parent Disappearance Mean ± SD [1, 6]: 0.486±4.76% | Individual Raw Data Observed ([1]; 5 μM, 20 pmol enzyme): 2.456 µM and 2.487 µM and 2.684 µM | Percent of Parent Disappearance Individual ([1]; 5 μM, 20 pmol enzyme): 1.36% and 0.129% and −7.81% | Percent of Parent Disappearance Mean ± SD ([1]; 5 μM, 20 pmol enzyme): −2.11 ± 4.98% | Percent of Parent Disappearance Mean ± SD [1, 7]: 2.11±4.98% | Individual Raw Data Observed ([1]; 50 μM, 5 pmol enzyme): 24.75 µM and 23.3 µM and 23.45 µM | Percent of Parent Disappearance Individual ([1]; 50 μM, 5 pmol enzyme): −5.02% and 1.11% and 0.484% | Percent of Parent Disappearance Mean ± SD ([1]; 50 μM, 5 pmol enzyme): −1.14 ± 3.38% | Percent of Parent Disappearance Mean ± SD [1, 8]: 1.14±3.38% | Individual Raw Data Observed ([1]; 50 μM, 20 pmol enzyme): 21.74 µM and 22.68 µM and 23.15 µM | Percent of Parent Disappearance Individual ([1]; 50 μM, 20 pmol enzyme): 4.54% and 0.420% and −1.66% | Percent of Parent Disappearance Mean ± SD ([1]; 50 μM, 20 pmol enzyme): 1.10 ± 3.16% | Percent of Parent Disappearance Mean ± SD [1, 9]: 1.10±3.16% | Individual Raw Data Observed ([2]; 5 μM, 5 pmol enzyme): 2.202 µM and 3.025 µM and 2.609 µM | Percent of Parent Disappearance Mean ± SD ([2]; 5 μM, 5 pmol enzyme): −18.0 ± 18.6% | Percent of Parent Disappearance Mean ± SD [2, 6]: no disappearance of megestrol acetate was detected | Individual Raw Data Observed ([2]; 5 μM, 20 pmol enzyme): 1.94 µM and 1.985 µM and 2.045 µM | Percent of Parent Disappearance Individual ([2]; 5 μM, 20 pmol enzyme): 2.05% and −0.201% and −3.26% | Percent of Parent Disappearance Mean ± SD ([2]; 5 μM, 20 pmol enzyme): −0.468 ± 2.66% | Percent of Parent Disappearance Mean ± SD [2, 7]: no disappearance of megestrol acetate was detected | Individual Raw Data Observed ([2]; 50 μM, 5 pmol enzyme): 21.4 µM and 22.9 µM and 22.7 µM | Percent of Parent Disappearance Individual ([2]; 50 μM, 5 pmol enzyme): 1.01% and −5.95% and −5.01% | Percent of Parent Disappearance Mean ± SD ([2]; 50 μM, 5 pmol enzyme): −3.32 ± 3.78% | Percent of Parent Disappearance Mean ± SD [2, 8]: no disappearance of megestrol acetate was detected | Individual Raw Data Observed ([2]; 50 μM, 20 pmol enzyme): 19.69 µM and 20.64 µM and 20.58 µM | Percent of Parent Disappearance Individual ([2]; 50 μM, 20 pmol enzyme): −0.513% and −5.33% and −5.02% | Percent of Parent Disappearance Mean ± SD ([2]; 50 μM, 20 pmol enzyme): −3.62 ± 2.70% | Percent of Parent Disappearance Mean ± SD [2, 9]: no disappearance of megestrol acetate was detected | Individual Raw Data Observed ([3]; 5 μM, 5 pmol enzyme): 2.098 µM and 2.127 µM and 2.133 µM | Percent of Parent Disappearance Individual ([3]; 5 μM, 5 pmol enzyme): 3.68% and 2.33% and 2.08% | Percent of Parent Disappearance Mean ± SD ([3]; 5 μM, 5 pmol enzyme): 2.70 ± 0.860% | Percent of Parent Disappearance Mean ± SD [3, 6]: 2.70±0.860% | Individual Raw Data Observed ([3]; 5 μM, 20 pmol enzyme): 2.314 µM and 2.379 µM and 2.134 µM | Percent of Parent Disappearance Individual ([3]; 5 μM, 20 pmol enzyme): 9.53% and 6.99% and 16.6% | Percent of Parent Disappearance Mean ± SD ([3]; 5 μM, 20 pmol enzyme): 11.0 ± 4.96% | Percent of Parent Disappearance Mean ± SD [3, 7]: 11.0±4.96% | Individual Raw Data Observed ([3]; 50 μM, 5 pmol enzyme): 20.38 µM and 20.18 µM and 20.9 µM | Percent of Parent Disappearance Individual ([3]; 50 μM, 5 pmol enzyme): 21.5% and 22.2% and 19.5% | Percent of Parent Disappearance Mean ± SD ([3]; 50 μM, 5 pmol enzyme): 21.0 ± 1.43% | Percent of Parent Disappearance Mean ± SD [3, 8]: 21.0±1.43% | Individual Raw Data Observed ([3]; 50 μM, 20 pmol enzyme): 24.33 µM and 21.36 µM and 25.28 µM | Percent of Parent Disappearance Individual ([3]; 50 μM, 20 pmol enzyme): −1.60% and 10.8% and −5.60% | Percent of Parent Disappearance Mean ± SD ([3]; 50 μM, 20 pmol enzyme): 1.19 ± 8.54% | Percent of Parent Disappearance Mean ± SD [3, 9]: 1.19±8.54% | Individual Raw Data Observed ([4]; 5 μM, 5 pmol enzyme): 1.94 µM and 2.747 µM and 2.056 µM | Percent of Parent Disappearance Mean ± SD ([4]; 5 μM, 5 pmol enzyme): −13.6 ± 022.0% | Percent of Parent Disappearance Mean ± SD [4, 6]: no substrate disappearance was detected | Individual Raw Data Observed ([4]; 5 μM, 20 pmol enzyme): 2.325 µM and 2.386 µM and 2.39 µM | Percent of Parent Disappearance Individual ([4]; 5 μM, 20 pmol enzyme): 4.68% and 2.15% and 2.01% | Percent of Parent Disappearance Mean ± SD ([4]; 5 μM, 20 pmol enzyme): 2.95 ± 1.50% | Percent of Parent Disappearance Mean ± SD [4, 7]: 2.95±2.46% | Individual Raw Data Observed ([4]; 50 μM, 5 pmol enzyme): 18.2 µM and 22.44 µM and 18.03 µM | Percent of Parent Disappearance Individual ([4]; 50 μM, 5 pmol enzyme): −3.00% and −27.0% and −2.03% | Percent of Parent Disappearance Mean ± SD [4, 8]: no substrate disappearance was detected | Individual Raw Data Observed ([4]; 50 μM, 20 pmol enzyme): 12.44 µM and 13.43 µM and 12.62 µM | Percent of Parent Disappearance Individual ([4]; 50 μM, 20 pmol enzyme): 1.88% and −5.91% and 0.449% | Percent of Parent Disappearance Mean ± SD ([4]; 50 μM, 20 pmol enzyme): −1.19 ± 04.14% | Percent of Parent Disappearance Mean ± SD [4, 9]: no substrate disappearance was detected | Individual Raw Data Observed ([5]; 5 μM, 5 pmol enzyme): 2.008 µM and 2.126 µM and 2.034 µM | Percent of Parent Disappearance Individual ([5]; 5 μM, 5 pmol enzyme): 20.4% and 15.8% and 19.4% | Percent of Parent Disappearance Mean ± SD ([5]; 5 μM, 5 pmol enzyme): 18.5 ± 02.46% | Percent of Parent Disappearance Mean ± SD [5, 6]: 18.5±2.46% | Individual Raw Data Observed ([5]; 5 μM, 20 pmol enzyme): 1.473 µM and 1.491 µM and 1.693 µM | Percent of Parent Disappearance Individual ([5]; 5 μM, 20 pmol enzyme): −1.62% and −2.86% and −16.8% | Percent of Parent Disappearance Mean ± SD ([5]; 5 μM, 20 pmol enzyme): −7.09 ± 8.42% | Percent of Parent Disappearance Mean ± SD [5, 7]: 7.09±8.42% | Individual Raw Data Observed ([5]; 50 μM, 5 pmol enzyme): 21.97 µM and 17.04 µM and 17.99 µM | Percent of Parent Disappearance Mean ± SD ([5]; 50 μM, 5 pmol enzyme): −10.5 ± 15.2% | Percent of Parent Disappearance Mean ± SD [5, 8]: 10.5±15.2% | Individual Raw Data Observed ([5]; 50 μM, 20 pmol enzyme): 21.04 µM and 21.41 µM and 21.74 µM | Percent of Parent Disappearance Individual ([5]; 50 μM, 20 pmol enzyme): −1.09% and −2.83% and −4.46% | Percent of Parent Disappearance Mean ± SD ([5]; 50 μM, 20 pmol enzyme): −2.79 ± 1.69% | Percent of Parent Disappearance Mean ± SD [5, 9]: 2.79±1.69%
